The record followed here is US20260337177A1, “TEAD CORE INHIBITORS FOR CANCER THERAPEUTICS” (University of Florida Research Foundation, Incorporated, priority 2023, published 2026).

Structures are written as SMILES.

Test [1] deals with TEADs. The experiment in a line: TEAD-specific 8×GTIIC-luciferase reporter assay. The format is cell-based.
In test [2] the test system is Huh7 cells. The experiment in a line: Cell cycle analysis by flow cytometry, Huh7. The format is cell-based, human. As to conditions: 5 and 10 μM, 48 hours. The protocol: To study the potential mechanistic pathways responsible for cell proliferation inhibition by compound 22, the change of cell cycle in Huh7 and HepG2 liver cancer cell lines was evaluated. DNA-based cell cycle analysis was performed using flow cytometry. […] To explore whether compound 22 also induces G1 phase arrest in HepG2 cells similar to its effects on Huh7 cells, parallel investigations were performed. […] However, the impact of 22 on inducing G1 phase arrest was less pronounced in HepG2 cells compared to Huh7 cells.
For cell cycle analysis, cells were fixed with pre-cold 70% ethanol for 30 minutes. Then the cells were washed with PBS and stained with propidium iodide working solution for 30 minutes in the dark. The stained cells were analyzed by flow cytometry. Cell cycle distribution was analyzed using FlowJo_V10 software. For each experiment, 20000 events per sample were recorded. Percentages of cells in G0/G1, S and G2/M phases were calculated and shown in DNA histograms.
For orientation: In flow cytometry, cells or beads pass a laser one at a time.

For test [3], the system named is YAP-TEAD. The experiment in a line: Co-immunoprecipitation of endogenous YAP and TEAD in NCI-H226 cells. In kind it is cell-based. Here is the method: To assess if compound 22 inhibits the interaction between YAP/TAZ and TEAD proteins within the cell, compound 22 was administered to NF2-deficient NCI-H226 cells for 24 hours. Subsequently, the endogenous TEAD protein was isolated through immunoprecipitation using a pan-TEAD antibody and examined the immunocomplexes for the presence of YAP/TAZ proteins using anti-YAP/TAZ antibodies (as depicted in FIG. 18).
[…] protein lysate extracted using lysis buffer were incubated with 5 μL pan-TEAD antibody (CST #13295, 33 g/ml) at 4 ° C overnight with rotation, and then incubated with 15 μL Protein G magnetic beads (Fisher #88847) at R.T. for 1 hour with rotation. After binding, beads were washed three times with lysis buffer and one time with ddH2O. IP samples were eluted using 1× gel loading buffer supplied with 20 mM DTT and boiled at 96 ° C for 10 min. […] protein lysate were used for input, and 3% IP flow-thru were used for binding efficiency control. *0 indicated DMSO control. For the detection process, primary antibodies used were: YAP/TAZ rabbit monoclonal antibody (mAb) at a dilution of 1:2000, CST #8418S; Pan-TEAD rabbit mAb at 1:2000, CST #13295S; and 3-actin mouse mAb at 1:8000, Sigma #A5316. Secondary antibodies applied in 1× TBST were: Rabbit IgG-HRP at 1:10000 and Mouse IgG-HRP also at 1:10000.

The test system of test [4] is CTGF and CYR61. The experiment in a line: CTGF and CYR61 expression in xenograft tumor tissue (western blotting). The format is in vivo. Conditions: vs vehicle groups. From the text: To elucidate the mechanism of compound 22-mediated antitumor activity in vivo, the expression level of CTGF and CYR61 in the tumor tissue were examined by western blotting.
(A western blot detects proteins with antibodies after separation by electrophoresis.)

As to `O=C(CCl)c1c[nH]c2cc(Cl)c(OCc3cccc(C(F)(F)F)c3)cc12` [Compound 22, 2-chloro-1-(6-chloro-5-((3-(trifluoromethyl)benzyl)oxy)-1H-indol-3-yl)ethan-1-one], the inhibition at 10 µM in test [1] (10 μM, 8×GTIIC-luciferase, read-out: Luciferase reporter assay inhibitory rate) came to 93.6%. Also, the IC50 – broadly, the concentration that inhibits the measured activity by half – in test [1] (dose response, read-out: TEADs transcription inhibition IC50, luciferase reporter assay) is 2100 nM. Besides, in test [2] (control group 36.4%), the “Percentage of cells in G1 phase, Huh7” value came to 58.2%. The “Proportion of cells in S/G2 phases, Huh7” value in test [2] was “distinct decrease”. Besides, the “Co-IP of YAP with pan-TEAD antibody” value in test [3] (1 μM, 24 hours) was “significantly diminished”. Further, in test [3] ("2.5 M", 24-hour treatment), the “Interaction between YAP and TEAD” value is “almost entirely inhibited”. Moreover, in test [4], the “CTGF expression in tumor tissue” value is recorded as “remarkable decrease” and the “CYR61 expression in tumor tissue” value is on record as “remarkable decrease”.
